± gives the standard deviation of the averaged measurements.
Tests used:
Assay in all cases: level (log10 ratio to DMSO vehicle control); higher = higher biomarker level / cell amount than vehicle control
Settings in all cases: in DMSO
Perfluorohexanoic acid = compound: O=C(O)C(F)(F)C(F)(F)C(F)(F)C(F)(F)C(F)(F)F [Perfluorohexanoic acid]
Experimental: (§1)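 BioMAP Diversity Plus panel of 12 human primary cell co-culture systems (3C, 4H, LPS, SAg, BT, BF4T, BE3C, CASM3C, HDF3CGF, KF3CT, MyoF, Mphg). Compounds were added 1 h before stimulation and left for 24 h (MyoF 48 h; BT 72 h for soluble read-outs or 6 d for IgG). Biomarkers were read by ELISA, cytotoxicity by SRB, PBMC viability and proliferation by Alamar Blue. Each well value was divided by the mean of 8 DMSO control wells on the same plate and log10 transformed; duplicate blinded samples were tested at 4 concentrations.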

[1] = compound: O=C(O)C(F)(F)OC(F)(F)C(F)(F)OC(F)(F)C(F)(F)C(F)(F)C(F)(F)F [Perfluoro-3,6-dioxadecanoic acid]
Experimental: as §1

[2] = compound: CNS(=O)(=O)C(F)(F)C(F)(F)C(F)(F)C(F)(F)C(F)(F)C(F)(F)C(F)(F)C(F)(F)F [N-Methylperfluorooctanesulfonamide]
Experimental: as §1

1H,1H-Heptafluorobutanol = compound: OCC(F)(F)C(F)(F)C(F)(F)F [1H,1H-Heptafluorobutanol]
Experimental: as §1

[3] = compound: O=S(=O)(O)C(F)(F)C(F)(F)C(F)(F)C(F)(F)C(F)(F)C(F)(F)C(F)(F)C(F)(F)F [Potassium perfluorooctanesulfonate]
Experimental: as §1

[4] = compound: O=C(O)C(F)(F)C(F)(F)C(F)(F)C(F)(F)C(F)(F)C(F)(F)C(F)(F)C(F)(F)Cl [9-Chloro-perfluorononanoic acid]
Experimental: as §1

[5] = compound: O=P(O)(O)CCC(F)(F)C(F)(F)C(F)(F)C(F)(F)C(F)(F)C(F)(F)C(F)(F)C(F)(F)F [((Perfluorooctyl)ethyl)phosphonic acid]
Experimental: as §1

Test System	level (log10) (Perfluorohexanoic acid; 6700 nM)	level (log10) (Perfluorohexanoic acid; 20000 nM)	level (log10) (Perfluorohexanoic acid; 60000 nM)	level (log10) ([1]; 6700 nM)	level (log10) ([1]; 20000 nM)	level (log10) ([1]; 60000 nM)	level (log10) ([2]; 6700 nM)	level (log10) ([2]; 20000 nM)	level (log10) ([2]; 60000 nM)	level (log10) (1H,1H-Heptafluorobutanol; 6700 nM)	level (log10) (1H,1H-Heptafluorobutanol; 20000 nM)	level (log10) (1H,1H-Heptafluorobutanol; 60000 nM)	level (log10) ([3]; 6700 nM)	level (log10) ([3]; 20000 nM)	level (log10) ([3]; 60000 nM)	level (log10) ([4]; 6700 nM)	level (log10) ([4]; 20000 nM)	level (log10) ([5]; 6700 nM)	level (log10) ([5]; 20000 nM)	level (log10) ([5]; 60000 nM)
HDF3CGF:SRB	0.0135 ± 0.013	0.0305 ± 0.022	-0.0055 ± 0.0092	0.0265 ± 0.033	0.0885 ± 0.022	0.0485 ± 0.079	-0.032 ± 0.03	0.005 ± 0.023	-0.008 ± 0.014	-0.047 ± 0.067	0.0415 ± 0.011	0.025 ± 0.033	-0.033 ± 0.052	-0.005 ± 0.052	-0.0695 ± 0.053	0.081 ± 0.016	0.065 ± 0.033	0.0285 ± 0.021	-0.0095 ± 0.033	-0.011 ± 0.033
HDF3CGF:TIMP-1	-0.0005 ± 0.0078	-0.002 ± 0.016	0.0025 ± 0.015	-0.0085 ± 0.00071	0.006 ± 0.11	0.0755 ± 0.083	0.0335 ± 0.016	-0.025 ± 0.038	0.012 ± 0.02	-0.021 ± 0.017	-0.028 ± 0.0099	-0.048 ± 0.11	0.001 ± 0.024	-0.001 ± 0.016	0.097 ± 0.061	-0.028 ± 0.027	-0.0105 ± 0.056	-0.03 ± 0.0057	-0.06 ± 0.018	-0.0575 ± 0.044
HDF3CGF:TIMP-2	0.033 ± 0.0014	0.021 ± 0.017	0.025 ± 0.037	-0.0245 ± 0.028	-0.035 ± 0.0085	-0.0625 ± 0.0078	-0.094 ± 0.0057	-0.136 ± 0.046	-0.049 ± 0.044	-0.0055 ± 0.025	0.018 ± 0.033	-0.029 ± 0.037	-0.055 ± 0.03	-0.108 ± 0.019	-0.137 ± 0.038	-0.0645 ± 0.04	-0.146 ± 0.029	0.0645 ± 0.013	0.0485 ± 0.0021	-0.029 ± 0.018
KF3CT:CCL2/MCP-1	-0.0155 ± 0.019	-0.0385 ± 0.018	0.001 ± 0.052	-0.0115 ± 0.018	-0.014 ± 0.0071	-0.08 ± 0.0042	0.029 ± 0.017	-0.01 ± 0.014	-0.0185 ± 0.005	0.0035 ± 0.005	0.006 ± 0.0042	0.0235 ± 0.015	-0.009 ± 0.011	-0.012 ± 0.0014	0.001 ± 0.05	0.004 ± 0.023	0.036 ± 0.035	-0.0355 ± 0.0064	-0.0255 ± 0.0078	-0.038 ± 0.042
KF3CT:CD54/ICAM-1	0.0055 ± 0.0064	-0.002 ± 0.013	-0.007 ± 0.011	-0.0295 ± 0.023	-0.0435 ± 0.0035	-0.033 ± 0.0085	0.031 ± 0.03	-0.035 ± 0.014	0.018 ± 0.0028	0.009 ± 0.0099	-0.0095 ± 0.0092	0.019 ± 0.0014	-0.0165 ± 0.021	0.0075 ± 0.011	0.002 ± 0.027	-0.0175 ± 0.00071	-0.039 ± 0.0014	0.019 ± 0.034	0.013 ± 0.018	-0.0055 ± 0.049
KF3CT:CXCL8/IL-8	-0.005 ± 0.014	0.009 ± 0.04	0.031 ± 0.013	-0.019 ± 0.011	-0.0145 ± 0.00071	-0.103 ± 0.014	-0.039 ± 0.041	-0.158 ± 0.037	-0.106 ± 0.02	-0.02 ± 0.0014	-0.021 ± 0.0028	-0.0025 ± 0.016	-0.006 ± 0.017	-0.0045 ± 0.0092	-0.0185 ± 0.015	0.0015 ± 0.021	-0.0025 ± 0.0035	0.022 ± 0.0014	0.0245 ± 0.0078	0.032 ± 0.0028
KF3CT:CXCL9/MIG	0.0075 ± 0.0064	0.0035 ± 0.012	0.0095 ± 0.012	-0.0095 ± 0.0064	-0.002 ± 0.0028	-0.005 ± 0.0085	-0.008 ± 0.0057	-0.0015 ± 0.0092	-0.0035 ± 0.023	-0.0015 ± 0.0021	0.002 ± 0.0028	0.0055 ± 0.005	-0.0065 ± 0.0035	0.003 ± 0.0042	0.008 ± 0.027	0.0025 ± 0.0092	-0.0015 ± 0.0021	-0.0095 ± 0.0078	0 ± 0.0071	-0.0225 ± 0.0092
KF3CT:CXCL10/IP-10	0.0045 ± 0.0092	0.0045 ± 0.005	0.017 ± 0.0014	-0.022 ± 0.0042	-0.0335 ± 0.011	-0.113 ± 0.028	0.0005 ± 0.04	0.003 ± 0.034	0.0255 ± 0.026	0.004 ± 0.0042	-0.0025 ± 0.016	0.012 ± 0.0071	-0.0075 ± 0.032	-0.0015 ± 0.016	-0.0335 ± 0.012	-0.0235 ± 0.0035	-0.0715 ± 0.0092	0.0105 ± 0.028	0.023 ± 0.013	0.0205 ± 0.005
KF3CT:IL-1alpha	-0.0045 ± 0.011	-0.0185 ± 0.011	0.008 ± 0.021	0.022 ± 0.0057	-0.0495 ± 0.013	-0.0295 ± 0.005	0.0585 ± 0.026	0.0435 ± 0.026	0.051 ± 0.016	0 ± 0.0042	0 ± 0.0014	-0.018 ± 0.0057	-0.0105 ± 0.016	-0.0085 ± 0.026	-0.029 ± 0.0028	-0.0295 ± 0.042	-0.056 ± 0.031	0.0025 ± 0.019	0.0035 ± 0.011	0.0025 ± 0.029
KF3CT:MMP-9	-0.009 ± 0.014	-0.0055 ± 0.0035	0.017 ± 0.016	-0.012 ± 0.014	0.005 ± 0.034	0.0215 ± 0.0078	0.0055 ± 0.005	-0.0495 ± 0.0035	-0.098 ± 0.027	-0.013 ± 0.0071	-0.0065 ± 0.005	-0.01 ± 0.0028	-0.013 ± 0.0099	-0.038 ± 0.0042	-0.0735 ± 0.023	-0.0345 ± 0.0021	-0.106 ± 0.0071	-0.0095 ± 0.0064	-0.027 ± 0.0042	-0.0365 ± 0.013
KF3CT:PAI-I	-0.0075 ± 0.00071	-0.0175 ± 0.0035	-0.0085 ± 0.00071	-0.007 ± 0.0014	-0.0325 ± 0.0078	-0.0495 ± 0.021	0.0465 ± 0.0078	0.101 ± 0.0071	0.0425 ± 0.028	0.0075 ± 0.0021	-0.0005 ± 0.0035	-0.0045 ± 0.0021	-0.044 ± 0.027	-0.053 ± 0.0071	-0.125 ± 0.024	-0.01 ± 0.0057	-0.101 ± 0.0078	-0.037 ± 0.035	-0.055 ± 0.02	-0.0595 ± 0.03
KF3CT:SRB	0.0045 ± 0.0035	-0.012 ± 0.0014	0.0045 ± 0.00071	-0.0175 ± 0.011	-0.022 ± 0.013	-0.013 ± 0.031	-0.0005 ± 0.00071	-0.0035 ± 0.0078	-0.002 ± 0.024	0.0015 ± 0.015	0.0005 ± 0.00071	0.0095 ± 0.0021	-0.0075 ± 0.0078	-0.011 ± 0.0014	-0.006 ± 0.0057	-0.0135 ± 0.0035	-0.0145 ± 0.012	0.0025 ± 0.0035	-0.001 ± 0.013	0.0085 ± 0.00071
KF3CT:TIMP-2	0.004 ± 0.016	-0.0125 ± 0.0035	-0.0125 ± 0.0078	-0.038 ± 0.0099	-0.0255 ± 0.043	-0.03 ± 0.024	0.0185 ± 0.0035	0.022 ± 0.024	0.008 ± 0.0028	0.0155 ± 0.011	0.002 ± 0.0057	-0.007 ± 0.0042	-0.01 ± 0.013	0.002 ± 0.02	0.0145 ± 0.0078	-0.0205 ± 0.0021	-0.0015 ± 0.0021	0.0015 ± 0.0021	0.013 ± 0.018	-0.0345 ± 0.005
KF3CT:uPA	0.0125 ± 0.0064	-0.004 ± 0.0085	0.016 ± 0.0099	-0.0095 ± 0.0064	-0.0065 ± 0.03	0.0095 ± 0.005	0.007 ± 0.014	-0.011 ± 0.014	-0.0085 ± 0.012	0.0095 ± 0.0021	0.0015 ± 0.0078	0.0065 ± 0.00071	-0.011 ± 0.0099	-0.004 ± 0.011	-0.027	0.0095 ± 0.0078	0.01	0.0065 ± 0.018	0.003 ± 0.016	0.0025 ± 0.0092

Reference: the supplement of paper PMC10331698
